Test: Safety (adverse events, NCI CTCAE v4.0), dose-escalation phase
[1] = dose-escalation QD × 3dQW 6–20 mg
[2] = dose-escalation QD × 5dQW 7–13 mg

Method: Patients who received ≥1 dose of sapanisertib were included in the safety population. […] Adverse events (AEs) were assessed using the National Cancer Institute Common Terminology Criteria for Adverse Events, v4.0. Patients were provided with a home blood-glucose meter to monitor their fasting predose blood-glucose measurements to assess hyperglycaemia as an on-target AE and PD marker.

CC(C)n1nc(-c2ccc3oc(N)nc3c2)c2c(N)ncnc21 [Sapanisertib]
On-study deaths within 30 days of last dose (both phases): 7
Acute kidney injury, treatment-related AE (dose-escalation QD 2–7 mg): 1 (3) n (%)
Anaemia, treatment-related AE (dose-escalation QD 2–7 mg): 3 (10) n (%)
Any AE (dose-escalation QD 2–7 mg): 31 (100) n (%)
Any AE resulting in dose modification/interruption (dose-escalation QD 2–7 mg): 22 (71) n (%)
Any AE resulting in treatment discontinuation (dose-escalation QD 2–7 mg): 11 (35) n (%)
Any SAE (dose-escalation QD 2–7 mg): 13 (42) n (%)
Any grade ≥3 AE (dose-escalation QD 2–7 mg): 19 (61) n (%)
Any treatment-related AE (dose-escalation QD 2–7 mg): 31 (100) n (%)
Any treatment-related SAE (dose-escalation QD 2–7 mg): 4 (13) n (%)
Any treatment-related grade ≥3 AE (dose-escalation QD 2–7 mg): 14 (45) n (%)
Asthenia, treatment-related AE (dose-escalation QD 2–7 mg): 6 (19) n (%)
Asthenia, treatment-related grade ≥3 AE (dose-escalation QD 2–7 mg): 1 (3) n (%)
Blood creatinine increased, treatment-related AE (dose-escalation QD 2–7 mg): 7 (23) n (%)
Decreased appetite, treatment-related AE (dose-escalation QD 2–7 mg): 11 (35) n (%)
Dehydration, treatment-related AE (dose-escalation QD 2–7 mg): 3 (10) n (%)
Dehydration, treatment-related grade ≥3 AE (dose-escalation QD 2–7 mg): 0 (0) n (%)
Diarrhoea, treatment-related AE (dose-escalation QD 2–7 mg): 11 (35) n (%)
Diarrhoea, treatment-related grade ≥3 AE (dose-escalation QD 2–7 mg): 1 (3) n (%)
Dry mouth, treatment-related AE (dose-escalation QD 2–7 mg): 5 (16) n (%)
Dysgeusia, treatment-related AE (dose-escalation QD 2–7 mg): 8 (26) n (%)
Dyspepsia, treatment-related AE (dose-escalation QD 2–7 mg): 1 (3) n (%)
Fatigue, treatment-related AE (dose-escalation QD 2–7 mg): 8 (26) n (%)
Fatigue, treatment-related grade ≥3 AE (dose-escalation QD 2–7 mg): 0 (0) n (%)
Headache, treatment-related AE (dose-escalation QD 2–7 mg): 0 (0) n (%)
Hypercholesterolemia, treatment-related AE (dose-escalation QD 2–7 mg): 5 (16) n (%)
Hyperglycaemia, treatment-related AE (dose-escalation QD 2–7 mg): 25 (81) n (%)
Hyperglycaemia, treatment-related grade ≥3 AE (dose-escalation QD 2–7 mg): 6 (19) n (%)
Hypophosphatemia, treatment-related AE (dose-escalation QD 2–7 mg): 0 (0) n (%)
Hypophosphatemia, treatment-related grade ≥3 AE (dose-escalation QD 2–7 mg): 0 (0) n (%)
Lymphopenia, treatment-related grade ≥3 AE (dose-escalation QD 2–7 mg): 2 (6) n (%)
Nausea, treatment-related AE (dose-escalation QD 2–7 mg): 13 (42) n (%)
Nausea, treatment-related grade ≥3 AE (dose-escalation QD 2–7 mg): 0 (0) n (%)
On-study deaths (dose-escalation QD 2–7 mg): 1 (3) n (%)
Pruritus generalised, treatment-related AE (dose-escalation QD 2–7 mg): 8 (26) n (%)
Pruritus generalised, treatment-related grade ≥3 AE (dose-escalation QD 2–7 mg): 2 (6) n (%)
Pruritus, treatment-related AE (dose-escalation QD 2–7 mg): 2 (6) n (%)
Rash maculo-papular, treatment-related AE (dose-escalation QD 2–7 mg): 3 (10) n (%)
Rash maculo-papular, treatment-related grade ≥3 AE (dose-escalation QD 2–7 mg): 2 (6) n (%)
Rash, treatment-related AE (dose-escalation QD 2–7 mg): 8 (26) n (%)
Rash, treatment-related grade ≥3 AE (dose-escalation QD 2–7 mg): 2 (6) n (%)
Stomatitis (includes oropharyngeal pain and mucosal inflammation), treatment-related AE (dose-escalation QD 2–7 mg): 11 (35) n (%)
Stomatitis, treatment-related grade ≥3 AE (dose-escalation QD 2–7 mg): 0 (0) n (%)
Thrombocytopenia, treatment-related grade ≥3 AE (dose-escalation QD 2–7 mg): 2 (6) n (%)
Vomiting, treatment-related AE (dose-escalation QD 2–7 mg): 8 (26) n (%)
Weight decreased, treatment-related AE (dose-escalation QD 2–7 mg): 1 (3) n (%)
Acute kidney injury, treatment-related AE [1]: 0 (0) n (%)
Anaemia, treatment-related AE [1]: 1 (3) n (%)
Any AE [1]: 33 (100) n (%)
Any AE resulting in dose modification/interruption [1]: 21 (64) n (%)
Any AE resulting in treatment discontinuation [1]: 7 (21) n (%)
Any SAE [1]: 17 (52) n (%)
Any grade ≥3 AE [1]: 25 (76) n (%)
Any treatment-related AE [1]: 32 (97) n (%)
Any treatment-related SAE [1]: 9 (27) n (%)
Any treatment-related grade ≥3 AE [1]: 19 (58) n (%)
Asthenia, treatment-related AE [1]: 10 (30) n (%)
Asthenia, treatment-related grade ≥3 AE [1]: 4 (12) n (%)
Blood creatinine increased, treatment-related AE [1]: 2 (6) n (%)
Decreased appetite, treatment-related AE [1]: 17 (52) n (%)
Dehydration, treatment-related AE [1]: 1 (3) n (%)
Dehydration, treatment-related grade ≥3 AE [1]: 1 (3) n (%)
Diarrhoea, treatment-related AE [1]: 13 (39) n (%)
Diarrhoea, treatment-related grade ≥3 AE [1]: 0 (0) n (%)
Dry mouth, treatment-related AE [1]: 2 (6) n (%)
Dysgeusia, treatment-related AE [1]: 4 (12) n (%)
Dyspepsia, treatment-related AE [1]: 1 (3) n (%)
Fatigue, treatment-related AE [1]: 12 (36) n (%)
Fatigue, treatment-related grade ≥3 AE [1]: 0 (0) n (%)
Headache, treatment-related AE [1]: 3 (9) n (%)
Hypercholesterolemia, treatment-related AE [1]: 4 (12) n (%)
Hyperglycaemia, treatment-related AE [1]: 22 (67) n (%)
Hyperglycaemia, treatment-related grade ≥3 AE [1]: 7 (21) n (%)
Hypophosphatemia, treatment-related AE [1]: 5 (15) n (%)
Hypophosphatemia, treatment-related grade ≥3 AE [1]: 3 (9) n (%)
Lymphopenia, treatment-related grade ≥3 AE [1]: 2 (6) n (%)
Nausea, treatment-related AE [1]: 23 (70) n (%)
Nausea, treatment-related grade ≥3 AE [1]: 2 (6) n (%)
On-study deaths [1]: 2 (6) n (%)
Pruritus generalised, treatment-related AE [1]: 6 (18) n (%)
Pruritus generalised, treatment-related grade ≥3 AE [1]: 1 (3) n (%)
Pruritus, treatment-related AE [1]: 1 (3) n (%)
Rash maculo-papular, treatment-related AE [1]: 1 (3) n (%)
Rash maculo-papular, treatment-related grade ≥3 AE [1]: 0 (0) n (%)
Rash, treatment-related AE [1]: 7 (21) n (%)
Rash, treatment-related grade ≥3 AE [1]: 0 (0) n (%)
Stomatitis (includes oropharyngeal pain and mucosal inflammation), treatment-related AE [1]: 23 (70) n (%)
Stomatitis, treatment-related grade ≥3 AE [1]: 5 (15) n (%)
Thrombocytopenia, treatment-related grade ≥3 AE [1]: 0 (0) n (%)
Vomiting, treatment-related AE [1]: 18 (55) n (%)
Weight decreased, treatment-related AE [1]: 2 (6) n (%)
Acute kidney injury, treatment-related AE [2]: 0 (0) n (%)
Anaemia, treatment-related AE [2]: 0 (0) n (%)
Any AE [2]: 22 (100) n (%)
Any AE resulting in dose modification/interruption [2]: 12 (55) n (%)
Any AE resulting in treatment discontinuation [2]: 6 (27) n (%)
Any SAE [2]: 10 (45) n (%)
Any grade ≥3 AE [2]: 14 (64) n (%)
Any treatment-related AE [2]: 21 (95) n (%)
Any treatment-related SAE [2]: 4 (18) n (%)
Any treatment-related grade ≥3 AE [2]: 8 (36) n (%)
Asthenia, treatment-related AE [2]: 9 (41) n (%)
Asthenia, treatment-related grade ≥3 AE [2]: 3 (14) n (%)
Blood creatinine increased, treatment-related AE [2]: 0 (0) n (%)
Decreased appetite, treatment-related AE [2]: 7 (32) n (%)
Dehydration, treatment-related AE [2]: 0 (0) n (%)
Dehydration, treatment-related grade ≥3 AE [2]: 0 (0) n (%)
Diarrhoea, treatment-related AE [2]: 8 (36) n (%)
Diarrhoea, treatment-related grade ≥3 AE [2]: 0 (0) n (%)
Dry mouth, treatment-related AE [2]: 2 (9) n (%)
Dysgeusia, treatment-related AE [2]: 4 (18) n (%)
Dyspepsia, treatment-related AE [2]: 0 (0) n (%)
Fatigue, treatment-related AE [2]: 7 (32) n (%)
